Common to all, as to experiment: inhibition of tumour cell growth, NCI panel, 48 h
Experiment [1] concerns NCI-H460 lung.
The test system of experiment [2] is OVCAR-5 ovarian.
Experiment [3] relates to SN12C renal.
Experiment [4] concerns TK-10 renal.
Experiment [5] deals with HCC-2998 colon.
Experiment [6] concerns HT29 colon.
Experiment [7] deals with M14 melanoma.
For experiment [8], the system named is U251 CNS.
Experiment [9] relates to UACC-257 melanoma.
Experiment [10] has as its system SF-539 CNS.

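Growth conditions: 96-well plates. Treatment: test compound, 48 hours, 5 concentrations. Analysis: linear interpolation between bracketing concentrations; unreached endpoints set to highest concentration. GI50: concentration for 50% inhibition of growth. TGI: total growth inhibition.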

Turning to `C=C(C)[C@@H]1CC[C@]2(C(=O)Nc3ccccn3)CC[C@]3(C)[C@H](CC[C@@H]4[C@@]5(C)CCCNC(C)(C)[C@@H]5CC[C@]43C)[C@@H]12`, the GI50 in [1] was 1.71 µM; in [2], 1.92 µM; in [3], 1.57 µM; in experiment [4] it was 2.26 µM. In addition, the TGI in experiment [1] is 3.3 µM; in [2] it was 3.89 µM; in experiment [3] it was 2.92 µM; in experiment [4] it was 5.45 µM.

Regarding `Nc1ccc(OCC(O)N2C(=O)c3ccccc3C2=O)cc1` (stereo unspecified), the TGI in experiment [5], in [6], in experiment [7], in experiment [1], in experiment [2] and in experiment [4] was greater than 100 µM in each case. For the same compound, the TGI in experiment [8] and in experiment [9] was greater than 100 µM in each case.

`C[C@H](C(=O)N[C@@H](Cc1ccc(-c2ccccc2)cc1)C(=O)NC1CC(C)(C)N(C)C(C)(C)C1)c1ccc(-c2ccccc2)c(F)c1`: the GI50 is 1.74 µM in experiment [5]; 1.74 µM in [7]; 1.06 µM in experiment [1]; 1.46 µM in experiment [2]; 1.56 µM in experiment [10]; 1.31 µM in [3]. Further, the GI50 in experiment [4] was 1.75 µM; in [9], 2.12 µM. The TGI in experiment [5] was found to be 3.42 µM; in experiment [7], 3.39 µM; in [1] it was 2.43 µM; in [2] it was 3 µM; in experiment [10], 3.03 µM; in experiment [3], 2.77 µM. Moreover, the TGI is 3.32 µM in [4] and 3.8 µM in experiment [9].

As for `C=C(C)C1CC2=C(O1)C(=O)c1ccccc1C2=O` (stereo unspecified), the TGI in experiment [5] was 39.3 µM; in experiment [6], 38.4 µM; in experiment [7], 33.1 µM; in experiment [1] it was 33.8 µM; in experiment [10], 33.7 µM; in [3] it was 43.5 µM. The TGI in experiment [4] is 46.3 µM; in experiment [8] it was 30.2 µM; in [9], 26.2 µM.

`Nc1nc(N)c2ncn(-c3ccc(Cl)c(Cl)c3)c2n1`: the TGI was greater than 100 µM in experiment [5]; 58.1 µM in experiment [6]; greater than 100 µM in [7]; greater than 100 µM in experiment [2]; 67.6 µM in [10]; 61.7 µM in [3]. Besides, the figures for the TGI in [4], in [8] and in [9] were 70.6 µM, greater than 100 µM and 57.9 µM, respectively.

Regarding `O=C(O)CC(C(=O)O)C1c2ccccc2-c2ccccc21` (stereo unspecified), the TGI in experiment [5], in experiment [6], in experiment [7], in experiment [1], in [3] and in experiment [4] was greater than 100 µM in each case. Besides, the TGI in [8] and in experiment [9] was greater than 100 µM throughout.

Turning to `CC(C)=CCc1c(O)ccc2c1OC1c3ccc(O)c(CC=C(C)C)c3OCC21` (stereo unspecified), the TGI in experiment [5] was 26 µM; in experiment [6], greater than 61.9 µM; in experiment [1], 16.1 µM; in [2], 27.1 µM; in experiment [10], 23.9 µM; in experiment [3] it was 30.3 µM. The figures for the TGI in [8] and in experiment [9] were 21.3 µM and 29 µM, respectively.

Take `N=C(N)c1ccc(-c2ccc(-c3cncc4ccccc34)s2)cc1F`: the GI50 in [6] was 1.68 µM; in [7], 1.8 µM; in [2], 1.6 µM; in experiment [10], 1.6 µM; in experiment [3], 1.85 µM. The TGI amounted to 4.48 µM in [6]; 3.4 µM in experiment [7]; 3.1 µM in experiment [2]; 3.04 µM in experiment [10]; 3.65 µM in experiment [3].

For `COc1cc(C(C)(C)C)cc(OC)c1C(O)(c1c(OC)cc(C(C)(C)C)cc1OC)c1c(OC)cc(C(C)(C)C)cc1OC`, the GI50 in experiment [5] is 0.429 µM; in [6], 0.224 µM; in [7] it was 0.381 µM; in experiment [1] it was 0.288 µM; in experiment [2], 0.327 µM; in experiment [10] it was 0.342 µM. Besides, the values for the GI50 in experiment [8] and in [9] were 0.0636 µM and 0.268 µM, respectively. Further, the TGI in [5] came out at 1.36 µM; in experiment [6], 0.877 µM; in [7], 1.13 µM; in [1] it was 0.853 µM; in experiment [2] it was 1.02 µM; in [10], 1.22 µM. The TGI was determined as 1.23 µM in experiment [8] and 0.702 µM in experiment [9].

In the case of `CCN=C=NCCCN(C)C`, the TGI in experiment [6], in [7], in [1], in [2], in [10] and in experiment [3] was greater than 100 µM in each case. In addition, the TGI in experiment [4], in experiment [8] and in experiment [9] was greater than 100 µM throughout.

These data come from PubChem BioAssay (NCI).
